Results from PubChem BioAssay (NCI).
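Test compounds were applied to cells in 96-well plates for 48 hours at 5 doses. The concentration for full growth arrest is given as TGI.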

What was measured:
Assay in all cases: NCI tumour cell line growth inhibition, 48 h
[1] = tested on: BT-549 breast
[2] = tested on: HS 578T breast
[3] = tested on: SNB-75 CNS
[4] = tested on: HT29 colon
[5] = tested on: T-47D breast
[6] = tested on: HCT-15 colon
[7] = tested on: MCF7 breast
[8] = tested on: HL-60(TB) leukemia
[9] = tested on: SK-MEL-28 melanoma
[10] = tested on: M14 melanoma
[11] = tested on: UO-31 renal
[12] = tested on: MALME-3M melanoma
[13] = tested on: A498 renal
[14] = tested on: UACC-257 melanoma
[15] = tested on: SN12C renal
[16] = tested on: OVCAR-3 ovarian
[17] = tested on: HCC-2998 colon
[18] = tested on: SNB-19 CNS
[19] = tested on: RPMI-8226 leukemia
[20] = tested on: SF-295 CNS
[21] = tested on: COLO 205 colon
[22] = tested on: SW-620 colon
[23] = tested on: SF-539 CNS
[24] = tested on: HOP-62 NSCLC
[25] = tested on: MDA-MB-231 breast
[26] = tested on: SK-OV-3 ovarian
[27] = tested on: OVCAR-8 ovarian
[28] = tested on: UACC-62 melanoma
[29] = tested on: OVCAR-5 ovarian
[30] = tested on: MDA-MB-435
[31] = tested on: SK-MEL-5 melanoma
[32] = tested on: KM12 colon
[33] = tested on: RXF 393 renal
[34] = tested on: MDA-N
[35] = tested on: ACHN renal
[36] = tested on: SF-268 CNS
[37] = tested on: K-562 leukemia
[38] = tested on: PC-3 prostate
[39] = tested on: EKVX NSCLC
[40] = tested on: NCI-H522 lung
[41] = tested on: CAKI-1 renal
[42] = tested on: IGROV1 ovarian
[43] = tested on: SR leukemia
[44] = tested on: 786-0 renal
[45] = tested on: U251 CNS
[46] = tested on: HCT-116 colon
[47] = tested on: NCI-H226 lung
[48] = tested on: SK-MEL-2 melanoma
[49] = tested on: NCI-H460 lung
[50] = tested on: DU-145 prostate
[51] = tested on: NCI/ADR-RES ovarian
[52] = tested on: TK-10 renal
[53] = tested on: OVCAR-4 ovarian
[54] = tested on: NCI-H23 lung
[55] = tested on: A549 NSCLC
[56] = tested on: HOP-92 NSCLC
[57] = tested on: LOX IMVI melanoma
[58] = tested on: MOLT-4 leukemia
[59] = tested on: CCRF-CEM leukemia

CC1=C(C(=O)Nc2ccccc2)C(c2ccc(C)o2)C(C#N)=C(SCc2ccccc2)N1 (configuration not stated)
TGI [1]: > 100 µM
TGI [2]: > 100 µM
TGI [3]: > 100 µM
TGI [4]: > 100 µM
TGI [5]: > 100 µM
TGI [6]: > 100 µM
TGI [7]: > 100 µM
TGI [8]: > 100 µM
TGI [9]: > 100 µM
TGI [10]: > 100 µM
TGI [11]: > 100 µM
TGI [12]: > 100 µM
TGI [13]: > 100 µM
TGI [14]: > 100 µM
TGI [15]: > 100 µM
TGI [16]: > 100 µM
TGI [17]: > 100 µM
TGI [18]: > 100 µM
TGI [19]: > 100 µM
TGI [20]: > 100 µM
TGI [21]: > 100 µM
TGI [22]: > 100 µM
TGI [23]: > 100 µM
TGI [24]: > 100 µM
TGI [25]: > 100 µM
TGI [26]: > 100 µM
TGI [27]: > 100 µM
TGI [28]: > 100 µM
TGI [29]: > 100 µM
TGI [30]: 24.6 µM
TGI [31]: > 100 µM
TGI [32]: > 100 µM
TGI [33]: > 100 µM
TGI [34]: > 92.9 µM
TGI [35]: > 100 µM
TGI [36]: > 100 µM
TGI [37]: > 100 µM
TGI [38]: > 100 µM
TGI [39]: > 100 µM
TGI [40]: > 100 µM
TGI [41]: > 100 µM
TGI [42]: > 100 µM
TGI [43]: > 68.6 µM
TGI [44]: > 100 µM
TGI [45]: > 100 µM
TGI [46]: > 100 µM
TGI [47]: > 100 µM
TGI [48]: > 100 µM
TGI [49]: > 100 µM
TGI [50]: > 100 µM
TGI [51]: > 100 µM
TGI [52]: > 100 µM
TGI [53]: > 100 µM
TGI [54]: > 100 µM
TGI [55]: > 100 µM
TGI [56]: > 66.4 µM
TGI [57]: > 100 µM
TGI [58]: > 100 µM
TGI [59]: > 100 µM

COc1cc(C2SCC(=O)N2c2ccc(Cl)cc2)cc(I)c1O (configuration not stated)
TGI [1]: > 100 µM
TGI [2]: > 100 µM
TGI [3]: > 100 µM
TGI [4]: > 100 µM
TGI [5]: > 100 µM
TGI [6]: > 100 µM
TGI [7]: > 100 µM
TGI [8]: > 100 µM
TGI [9]: > 100 µM
TGI [10]: > 100 µM
TGI [11]: > 100 µM
TGI [12]: > 100 µM
TGI [13]: > 23.2 µM
TGI [14]: > 100 µM
TGI [15]: > 100 µM
TGI [16]: > 100 µM
TGI [17]: > 100 µM
TGI [18]: > 100 µM
TGI [19]: > 100 µM
TGI [20]: > 100 µM
TGI [21]: > 23.7 µM
TGI [22]: > 100 µM
TGI [23]: > 100 µM
TGI [24]: > 100 µM
TGI [25]: > 100 µM
TGI [26]: > 100 µM
TGI [27]: > 100 µM
TGI [28]: > 28.5 µM
TGI [29]: > 100 µM
TGI [30]: > 100 µM
TGI [31]: > 100 µM
TGI [32]: > 100 µM
TGI [33]: > 100 µM
TGI [34]: > 100 µM
TGI [35]: > 100 µM
TGI [36]: > 100 µM
TGI [37]: > 100 µM
TGI [38]: > 100 µM
TGI [39]: > 100 µM
TGI [40]: > 100 µM
TGI [41]: > 100 µM
TGI [42]: > 100 µM
TGI [43]: > 100 µM
TGI [44]: > 100 µM
TGI [45]: > 100 µM
TGI [46]: > 100 µM
TGI [47]: > 100 µM
TGI [48]: > 100 µM
TGI [49]: > 100 µM
TGI [50]: > 100 µM
TGI [51]: > 100 µM
TGI [52]: > 100 µM
TGI [53]: > 67.5 µM
TGI [54]: > 100 µM
TGI [55]: > 100 µM
TGI [56]: > 100 µM
TGI [57]: > 100 µM
TGI [58]: > 100 µM
TGI [59]: > 100 µM

CN(C1=NS(=O)(=O)N=C(N(C)c2ccccc2)O1)c1ccccc1
TGI [1]: 39 µM
TGI [2]: 69.9 µM
TGI [3]: 34.5 µM
TGI [4]: 54.3 µM
TGI [5]: 45.5 µM
TGI [6]: 39.2 µM
TGI [7]: 38.9 µM
TGI [8]: 33.7 µM
TGI [9]: 43.3 µM
TGI [10]: 38.9 µM
TGI [11]: 37.6 µM
TGI [12]: 49.7 µM
TGI [13]: 42.1 µM
TGI [14]: 57.4 µM
TGI [15]: 41.2 µM
TGI [16]: 51.6 µM
TGI [17]: 36.7 µM
TGI [18]: 43.4 µM
TGI [19]: 43.9 µM
TGI [20]: 57.7 µM
TGI [21]: 46 µM
TGI [22]: 30.3 µM
TGI [23]: 39.3 µM
TGI [24]: 41.9 µM
TGI [25]: 41 µM
TGI [26]: 78.8 µM
TGI [27]: 33.3 µM
TGI [28]: 28 µM
TGI [29]: 47 µM
TGI [30]: 30.4 µM
TGI [31]: 25.5 µM
TGI [32]: 34.4 µM
TGI [33]: 20.4 µM
TGI [34]: 32.6 µM
TGI [35]: 31.7 µM
TGI [36]: 57 µM
TGI [37]: 50.4 µM
TGI [38]: > 100 µM
TGI [39]: 48.6 µM
TGI [40]: 46.2 µM
TGI [41]: 45.4 µM
TGI [42]: 75.7 µM
TGI [43]: 44.7 µM
TGI [44]: 72.7 µM
TGI [45]: 36.8 µM
TGI [46]: 27.6 µM
TGI [47]: 33.1 µM
TGI [48]: 38 µM
TGI [49]: 47.7 µM
TGI [50]: 61.7 µM
TGI [51]: 70.8 µM
TGI [52]: 80.2 µM
TGI [53]: 51.5 µM
TGI [54]: 28.3 µM
TGI [55]: 54.4 µM
TGI [56]: 54.6 µM
TGI [57]: 27.6 µM
TGI [58]: > 100 µM
TGI [59]: > 100 µM
